Reference: ChEMBL document CHEMBL1124694, “C2,N6-disubstituted adenosines: synthesis and structure-activity relationships” (J Med Chem, 1989)
pKi: −log10 of the molar value.

Legend:
Adenosine receptor A1 = molecular target: T1, Adenosine receptor A1 (Rattus norvegicus, UniProt P25099)
T1 sequence (P25099 whole entry): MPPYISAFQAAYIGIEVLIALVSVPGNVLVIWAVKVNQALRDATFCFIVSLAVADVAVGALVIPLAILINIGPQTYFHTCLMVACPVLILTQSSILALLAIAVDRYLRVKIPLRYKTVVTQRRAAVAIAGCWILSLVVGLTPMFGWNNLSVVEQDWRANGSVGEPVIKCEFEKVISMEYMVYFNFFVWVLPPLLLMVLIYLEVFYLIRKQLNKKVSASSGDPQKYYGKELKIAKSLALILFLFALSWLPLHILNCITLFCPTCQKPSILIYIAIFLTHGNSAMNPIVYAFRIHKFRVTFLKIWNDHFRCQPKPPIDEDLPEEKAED

Adenosine A2 receptor [1] = molecular target: T2, Adenosine A2 receptor (Rattus norvegicus, UniProt P29276+P30543)
Adenosine A2 receptor [2] = molecular target: T2, Adenosine A2 receptor; assay: Inhibition of [3H]NECA binding to Adenosine A2 receptor of rat striatal membranes; assay type: cell membranes, Membrane

Row | Compound | pKi (Adenosine receptor A1) | Ki (Adenosine A2 receptor [1]) [nM] | Ki (Adenosine A2 receptor [2]) [nM]
1 | O=S(=O)(c1ccccc1)c1nc(NC2CCCCC2)c2ncn(C3O[C@H](CO)[C@@H](O)[C@H]3O)c2n1 (stereo not given in full) | 6.38 | 5100 | –
2 | CC(Cc1ccccc1)Nc1nc(Sc2ccccc2)nc2c1ncn2C1O[C@H](CO)[C@@H](O)[C@H]1O (stereo not given in full) | 6.68 | 1000 | –
3 | OC[C@H]1OC(n2cnc3c(NN4CCCC4)nc(Nc4ccccc4)nc32)[C@H](O)[C@@H]1O (stereo not given in full) | 4.74 | 58000 | –
4 | OC[C@H]1OC(n2cnc3c(NCC(c4ccccc4)c4ccccc4)nc(Sc4ccccc4)nc32)[C@H](O)[C@@H]1O (stereo not given in full) | 6.08 | 800 | –
5 | Nc1nc(=O)[nH]c2c1ncn2[C@@H]1O[C@H](CO)[C@@H](O)[C@H]1O [ISOGUANOSINE] | – | – | 330
6 | Nc1nc(Sc2ccccc2)nc2c1ncn2C1O[C@H](CO)[C@@H](O)[C@H]1O (stereo not given in full) | 5.66 | – | 2000
7 | OC[C@H]1OC(n2cnc3c(NCCc4ccccc4)nc(NCCc4ccccc4)nc32)[C@H](O)[C@@H]1O (stereo not given in full) | 5.79 | 2000 | –
8 | OC[C@H]1OC(n2cnc3c(NCc4cccc5ccccc45)nc(NCc4ccccc4)nc32)[C@H](O)[C@@H]1O (stereo not given in full) | 6.28 | 350 | –
9 | OC[C@H]1OC(n2cnc3c(NCc4cccc5ccccc45)nc(Nc4ccccc4)nc32)[C@H](O)[C@@H]1O (stereo not given in full) | 6.25 | 230 | –
10 | OC[C@H]1OC(n2cnc3c(NCC4c5ccccc5-c5ccccc54)nc(Nc4ccccc4)nc32)[C@H](O)[C@@H]1O (stereo not given in full) | 5.05 | 2100 | –
11 | COc1cc(OC)cc(C(CNc2nc(Nc3ccccc3)nc3c2ncn3C2O[C@H](CO)[C@@H](O)[C@H]2O)c2ccccc2)c1 (stereo not given in full) | 5.05 | 470 | –
12 | OC[C@H]1OC(n2cnc3c(NCC(c4ccccc4)c4ccccc4)nc(Nc4ccccc4)nc32)[C@H](O)[C@@H]1O (stereo not given in full) | 5.57 | 650 | –
13 | COc1ccc(-c2nc(N)c3ncn(C4O[C@H](CO)[C@@H](O)[C@H]4O)c3n2)cc1 (stereo not given in full) | 5.88 | – | 600
14 | O=S(=O)(c1ccccc1)c1nc(NC2CCCC2)c2ncn(C3O[C@H](CO)[C@@H](O)[C@H]3O)c2n1 (stereo not given in full) | 7.02 | 2300 | –
15 | OC[C@H]1OC(n2cnc3c(NCc4ccccc4)nc(Nc4ccccc4)nc32)[C@H](O)[C@@H]1O (stereo not given in full) | 5.79 | 7100 | –
16 | Nc1nc(S(=O)(=O)c2ccccc2)nc2c1ncn2C1O[C@H](CO)[C@@H](O)[C@H]1O (stereo not given in full) | 5.59 | – | 1230
17 | OC[C@H]1OC(n2cnc3c(NC4CCCCC4)nc(Sc4ccccc4)nc32)[C@H](O)[C@@H]1O (stereo not given in full) | 6.80 | 6700 | –
18 | OC[C@H]1O[C@@H](n2cnc3c(NCc4cccc5ccccc45)nc(NC4CCCCC4)nc32)[C@H](O)[C@@H]1O | 4.35 | 10300 | –
19 | CC(Cc1ccccc1)Nc1nc(Nc2ccccc2)nc2c1ncn2C1O[C@H](CO)[C@@H](O)[C@H]1O (stereo not given in full) | 6.82 | 240 | –
20 | OC[C@H]1OC(n2cnc3c(NCc4cccc5ccccc45)nc(Sc4ccccc4)nc32)[C@H](O)[C@@H]1O (stereo not given in full) | 5.83 | 610 | –
21 | COc1cc(OC)cc(C(CNc2nc(Nc3ccccc3)nc3c2ncn3C2O[C@H](CO)[C@@H](O)[C@H]2O)c2ccccc2C)c1 (stereo not given in full) | 4.99 | 340 | –
22 | O=S(=O)(c1ccccc1)c1nc(NCc2cccc3ccccc23)c2ncn(C3O[C@H](CO)[C@@H](O)[C@H]3O)c2n1 (stereo not given in full) | 5.70 | 270 | –

Second part, the molecule after the results:

Row | pKi (Adenosine receptor A1) | Ki (Adenosine A2 receptor [1]) [nM] | Ki (Adenosine A2 receptor [2]) [nM] | Compound
23 | 7.30 | 1700 | – | CC(O)CNc1nc(Nc2ccccc2)nc2c1ncn2C1O[C@H](CO)[C@@H](O)[C@H]1O (stereo not given in full)
24 | 7.21 | 135 | – | Nc1nc(NCC(c2ccccc2)c2ccccc2)c2ncn(C3O[C@H](CO)[C@@H](O)[C@H]3O)c2n1 (stereo not given in full)
25 | 7.43 | 4000 | – | OC[C@H]1OC(n2cnc3c(NC4CCCC4)nc(Sc4ccccc4)nc32)[C@H](O)[C@@H]1O (stereo not given in full)
26 | 7.27 | 450 | – | OC[C@H]1OC(n2cnc3c(NC4CCCCC4)nc(Nc4ccccc4)nc32)[C@H](O)[C@@H]1O (stereo not given in full)
27 | 7.74 | 14.9 | – | OC[C@H]1OC(n2cnc3c(NCc4cccc5ccccc45)nc(F)nc32)[C@H](O)[C@@H]1O (stereo not given in full)
28 | 8.49 | – | – | OC[C@H]1O[C@@H](n2cnc3c(NC4CC4)ncnc32)[C@H](O)[C@@H]1O
29 | 7.72 | 1530 | – | CC(Cc1ccccc1)Nc1nc(N)nc2c1ncn2C1O[C@H](CO)[C@@H](O)[C@H]1O (stereo not given in full)
30 | 7.71 | 3500 | – | Nc1nc(NC2CCCCC2)c2ncn(C3O[C@H](CO)[C@@H](O)[C@H]3O)c2n1 (stereo not given in full)
31 | 8.11 | 472 | – | OC[C@H]1OC(n2cnc3c(NC4CC5CCC4C5)nc(Nc4ccccc4)nc32)[C@H](O)[C@@H]1O (stereo not given in full)
32 | 8.30 | 9300 | – | CC(O)CNc1ncnc2c1ncn2C1O[C@H](CO)[C@@H](O)[C@H]1O (stereo not given in full)
33 | 7.73 | 22 | – | Nc1nc(NCC2c3ccccc3-c3ccccc32)c2ncn(C3O[C@H](CO)[C@@H](O)[C@H]3O)c2n1 (stereo not given in full)
34 | 8.08 | 6100 | – | Nc1nc(NC2CCCC2)c2ncn(C3O[C@H](CO)[C@@H](O)[C@H]3O)c2n1 (stereo not given in full)
35 | 7.17 | 960 | – | OC[C@H]1OC(n2cnc3c(NC4CC4)nc(Nc4ccccc4)nc32)[C@H](O)[C@@H]1O (stereo not given in full)
36 | 7.91 | 144 | – | OC[C@H]1OC(n2cnc3c(NC4CCCC4)nc(Nc4ccccc4)nc32)[C@H](O)[C@@H]1O (stereo not given in full)
